Results from ChEMBL document CHEMBL6127131, “Design, Synthesis, and Biological Evaluation of New Selective PDE4 Inhibitors for Topical Treatment of Psoriasis” (J Med Chem, 2024).
Activity calls are given as the source filed them. No cut-off for these calls is given here.

Key:
[1] = molecular target: T1, 3',5'-cyclic-AMP phosphodiesterase 4D (Homo sapiens, UniProt Q08499); test: Inhibition of PDE4D (unknown origin)
[2] = molecular target: T1, 3',5'-cyclic-AMP phosphodiesterase 4D; test: Inhibition of PDE4D7 (unknown origin)
[3] = AUC(0 to t) in ICR(CD-1) mouse at 10 mg/kg, po measured upto 24 hrs by LC-MS/MS analysis; type: ADME, organism-based; details: in vivo
RAW264.7 [4] = test: Anti-inflammatory activity against LPS induced mouse RAW264.7 cells assessed as reduction in IL-6 secretion incubated for 24 hrs by ELISA; type: functional, cell-based; details: RAW264.7, 24 h
[5] = Drug concentration in ICR(CD-1) mouse blood at 1.2% administered topically and measured after 2 hrs by LC-MS/MS analysis; type: ADME, tissue-based; details: topical or ocular, route top, read-out: Ct
[6] = Half-life in ICR(CD-1) mouse at 5 mg/kg, iv measured upto 24 hrs by LC-MS/MS analysis; type: ADME, organism-based; details: in vivo
[7] = Drug concentration in ICR(CD-1) mouse blood at 1.2% administered topically and measured after 1 hr by LC-MS/MS analysis; type: ADME, tissue-based; details: topical or ocular, route top, read-out: Ct
[8] = molecular target: D(2) dopamine receptor (Homo sapiens) (UniProt P14416); test: Inhibition of D2S (unknown origin) at 10 uM relative to control
D(2) dopamine receptor (Homo sapiens), sequence (P14416 whole entry): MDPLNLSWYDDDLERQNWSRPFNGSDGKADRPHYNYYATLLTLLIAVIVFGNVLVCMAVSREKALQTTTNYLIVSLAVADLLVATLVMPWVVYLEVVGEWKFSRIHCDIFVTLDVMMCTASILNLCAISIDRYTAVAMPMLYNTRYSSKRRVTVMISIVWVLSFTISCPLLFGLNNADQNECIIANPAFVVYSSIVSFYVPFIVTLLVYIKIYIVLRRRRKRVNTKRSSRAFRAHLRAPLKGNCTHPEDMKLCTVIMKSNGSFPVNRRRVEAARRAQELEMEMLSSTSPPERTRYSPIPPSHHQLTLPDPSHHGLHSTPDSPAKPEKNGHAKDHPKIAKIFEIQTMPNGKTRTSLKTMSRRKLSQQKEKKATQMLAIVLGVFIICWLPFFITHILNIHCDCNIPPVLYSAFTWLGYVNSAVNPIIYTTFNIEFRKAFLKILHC

[9] = Tmax in ICR(CD-1) mouse at 10 mg/kg, po measured upto 24 hrs by LC-MS/MS analysis; type: ADME, organism-based; details: in vivo
[10] = molecular target: 5-hydroxytryptamine receptor 1B (Homo sapiens) (UniProt P28222); test: Inhibition of 5-HT1B (unknown origin) at 10 uM relative to control
5-hydroxytryptamine receptor 1B (Homo sapiens), sequence (P28222 whole entry): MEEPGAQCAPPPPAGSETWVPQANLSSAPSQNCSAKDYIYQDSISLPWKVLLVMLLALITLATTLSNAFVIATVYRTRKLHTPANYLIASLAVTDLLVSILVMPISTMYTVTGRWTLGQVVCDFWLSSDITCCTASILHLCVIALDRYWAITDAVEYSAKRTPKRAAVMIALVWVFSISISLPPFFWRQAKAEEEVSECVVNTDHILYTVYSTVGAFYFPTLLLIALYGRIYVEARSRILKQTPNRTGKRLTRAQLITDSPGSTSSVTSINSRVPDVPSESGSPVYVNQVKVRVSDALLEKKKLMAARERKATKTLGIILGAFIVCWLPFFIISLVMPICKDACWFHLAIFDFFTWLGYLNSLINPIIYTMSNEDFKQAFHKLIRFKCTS

Mus musculus [11] = test: Antiinflammatory activity against imiquimod-induced psoriasis in BALB/c mouse model assessed as reduction in spleen enlargement at 0.3 to 1.2% administration as ointment pretreated with IMQ for 4 hrs followed by compound addition once daily from day 2 to 8; type: functional, organism-based; details: dose 0.3-1.2 %, time 7.0 day
[12] = Metabolic stability in monkey liver microsomes assessed as half-life preincubated for 2 hrs followed by NADPH regenerating agent addition and measured upto 4 hrs by LC-MS analysis; type: ADME, Macaca mulatta, Microsome; details: rhesus monkey, time < 6 hrs
Mus musculus [13] = test: Antiinflammatory activity against imiquimod-induced psoriasis in BALB/c mouse model assessed as reduction in skin thickness at 0.3 to 1.2% administration as ointment pretreated with IMQ for 4 hrs followed by compound addition once daily from day 2 to 8 by H and E staining based assay; type: functional, organism-based; details: dose 0.3-1.2 %, time 7.0 day
RAW264.7 [14] = test: Upregulation of EPAC1 protein expression in mouse RAW264.7 cells at 5 to 20 uM preincubated for 12 hrs followed by LPS stimulation for 4 hrs by Western blotting analysis; type: functional, cell-based; details: dose 5-20 µM, time 16.0 hrs
[15] = AUC(0 to infinity) in ICR(CD-1) mouse at 10 mg/kg, po measured upto 24 hrs by LC-MS/MS analysis; type: ADME, organism-based; details: in vivo
Mus musculus [16] = test: Antiinflammatory activity against imiquimod-induced psoriasis in BALB/c mouse model assessed as reduction in IL-1beta protein level at 1.2% administration as ointment pretreated with IMQ for 4 hrs followed by compound addition once daily from day 2 to 8 by ELISA; type: functional, organism-based; details: time 7.0 day
[17] = Clearance in ICR(CD-1) mouse at 5 mg/kg, iv measured upto 24 hrs by LC-MS/MS analysis; type: ADME, organism-based; details: in vivo
HaCaT = test: Anti-inflammatory activity against M5 induced human HaCaT cells assessed as reduction in TNFalpha secretion incubated for 24 hrs by ELISA; type: functional, cell-based
Mus musculus [18] = test: Antiinflammatory activity against imiquimod-induced psoriasis in BALB/c mouse model assessed as reduction in immune cell infiltration at 0.3 to 1.2% administration as ointment pretreated with IMQ for 4 hrs followed by compound addition once daily from day 2 to 8 by H and E staining based assay; type: functional, organism-based; details: dose 0.3-1.2 %, time 7.0 day
[19] = Oral bioavailability in ICR(CD-1) mouse at 10 mg/kg measured upto 24 hrs by LC-MS/MS analysis; type: ADME, organism-based; details: in vivo
[20] = Metabolic stability in rat liver microsomes assessed as half-life preincubated for 2 hrs followed by NADPH regenerating agent addition and measured upto 4 hrs by LC-MS analysis; type: ADME, Microsome; details: time < 6 hrs
[21] = Initial plasma concentration in ICR(CD-1) mouse at 5 mg/kg, iv measured upto 24 hrs by LC-MS/MS analysis; type: ADME, organism-based
Mus musculus [22] = test: Antiinflammatory activity against imiquimod-induced psoriasis in BALB/c mouse model assessed as reduction in IL-17A protein level at 1.2% administration as ointment pretreated with IMQ for 4 hrs followed by compound addition once daily from day 2 to 8 by ELISA; type: functional, organism-based; details: time 7.0 day
[23] = Cytotoxicity against human HaCaT cells incubated for 24 hrs by CCK8 assay; type: toxicity, cell-based
[24] = Toxicity in BALB/c mouse assessed as body weight loss at 0.3 to 1.2% administration as ointment once a day from day 2 to 8; details: in vivo, topical_or_ocular, 168 h, dose 0.3-1.2 %, time 7 day
[25] = Half-life in ICR(CD-1) mouse at 10 mg/kg, po measured upto 24 hrs by LC-MS/MS analysis; type: ADME, organism-based; details: in vivo
RAW264.7 [26] = test: Downregulation of IL-6 mRNA expression in LPS induced mouse RAW264.7 cells at 5 to 20 uM preincubated for 12 hrs followed by LPS stimulation for 4 hrs by RT-qPCR analysis; type: functional, cell-based; details: dose 5-20 µM, time 16.0 hrs
[27] = Metabolic stability in human liver microsomes assessed as half-life preincubated for 2 hrs followed by NADPH regenerating agent addition and measured upto 4 hrs by LC-MS analysis; type: ADME, Microsome; details: time < 6 hrs
[28] = Metabolic stability in dog liver microsomes assessed as half-life preincubated for 2 hrs followed by NADPH regenerating agent addition and measured upto 4 hrs by LC-MS analysis; type: ADME, Canis lupus familiaris, Microsome; details: time < 6 hrs
[29] = molecular target: 3',5'-cyclic-AMP phosphodiesterase 4A (Homo sapiens, UniProt P27815); test: Inhibition of PDE4A (unknown origin)
3',5'-cyclic-AMP phosphodiesterase 4A, sequence (P27815 whole entry): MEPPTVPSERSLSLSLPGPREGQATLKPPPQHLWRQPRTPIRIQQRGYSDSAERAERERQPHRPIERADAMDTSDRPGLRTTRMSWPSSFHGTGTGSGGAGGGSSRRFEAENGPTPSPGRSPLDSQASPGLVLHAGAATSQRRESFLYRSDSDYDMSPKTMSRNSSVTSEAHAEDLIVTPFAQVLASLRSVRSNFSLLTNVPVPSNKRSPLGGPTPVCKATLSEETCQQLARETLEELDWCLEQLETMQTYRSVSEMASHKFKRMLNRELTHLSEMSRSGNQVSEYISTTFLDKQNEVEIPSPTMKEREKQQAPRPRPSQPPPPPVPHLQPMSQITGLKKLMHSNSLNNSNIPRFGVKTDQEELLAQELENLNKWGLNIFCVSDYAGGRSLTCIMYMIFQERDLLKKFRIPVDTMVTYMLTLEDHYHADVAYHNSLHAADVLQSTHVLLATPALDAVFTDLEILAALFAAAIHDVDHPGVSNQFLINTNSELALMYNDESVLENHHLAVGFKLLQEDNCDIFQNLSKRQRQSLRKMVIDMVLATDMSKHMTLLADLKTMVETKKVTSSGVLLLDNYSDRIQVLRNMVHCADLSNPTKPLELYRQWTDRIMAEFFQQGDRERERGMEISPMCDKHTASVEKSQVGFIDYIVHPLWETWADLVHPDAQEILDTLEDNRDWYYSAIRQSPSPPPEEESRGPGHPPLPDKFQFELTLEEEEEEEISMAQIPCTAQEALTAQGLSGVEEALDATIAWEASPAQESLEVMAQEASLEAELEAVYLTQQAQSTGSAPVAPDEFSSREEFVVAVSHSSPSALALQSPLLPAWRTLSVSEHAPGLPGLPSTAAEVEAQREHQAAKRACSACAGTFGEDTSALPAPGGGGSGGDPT

RAW264.7 [30] = test: Anti-inflammatory activity against LPS induced mouse RAW264.7 cells assessed as reduction in TNFalpha secretion incubated for 24 hrs by ELISA; type: functional, cell-based; details: RAW264.7, 24 h
[31] = Apparent volume of distribution in ICR(CD-1) mouse at 5 mg/kg, iv measured upto 24 hrs by LC-MS/MS analysis; type: ADME, organism-based; details: in vivo, read-out: Vz
RAW264.7 [32] = test: Downregulation of IL-17A mRNA expression in LPS induced mouse RAW264.7 cells at 5 to 20 uM preincubated for 12 hrs followed by LPS stimulation for 4 hrs by RT-qPCR analysis; type: functional, cell-based; details: dose 5-20 µM, time 16.0 hrs
RAW264.7 [33] = test: Upregulation of p-CREB1/CREB1 protein ratio in mouse RAW264.7 cells at 5 to 20 uM preincubated for 12 hrs followed by LPS stimulation for 4 hrs by Western blotting analysis; type: functional, cell-based; details: dose 5-20 µM, time 16.0 hrs
[34] = Metabolic stability in mouse liver microsomes assessed as half-life preincubated for 2 hrs followed by NADPH regenerating agent addition and measured upto 4 hrs by LC-MS analysis; type: ADME, Microsome; details: time < 6 hrs
[35] = Cytotoxicity against mouse RAW264.7 cells incubated for 24 hrs by CCK8 assay; type: toxicity, cell-based
[36] = molecular target: Cannabinoid receptor 1 (Homo sapiens) (UniProt P21554); test: Inhibition of CB1 (unknown origin) at 10 uM relative to control
Cannabinoid receptor 1 (Homo sapiens), sequence (P21554 whole entry): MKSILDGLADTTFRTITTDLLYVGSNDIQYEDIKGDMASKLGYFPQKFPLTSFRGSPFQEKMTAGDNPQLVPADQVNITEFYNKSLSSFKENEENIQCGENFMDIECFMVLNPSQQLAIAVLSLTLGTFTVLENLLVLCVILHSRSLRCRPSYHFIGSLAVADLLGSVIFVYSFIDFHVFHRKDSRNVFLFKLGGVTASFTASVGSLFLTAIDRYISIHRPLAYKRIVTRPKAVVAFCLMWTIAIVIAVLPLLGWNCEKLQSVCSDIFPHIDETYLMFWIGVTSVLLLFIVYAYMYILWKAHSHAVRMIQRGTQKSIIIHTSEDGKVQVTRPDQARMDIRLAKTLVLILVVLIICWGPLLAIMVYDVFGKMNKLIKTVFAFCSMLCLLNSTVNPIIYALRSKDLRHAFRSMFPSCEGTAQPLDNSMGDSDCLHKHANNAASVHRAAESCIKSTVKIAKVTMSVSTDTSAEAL

[37] = AUC(0 to t) in ICR(CD-1) mouse at 5 mg/kg, iv measured upto 24 hrs by LC-MS/MS analysis; type: ADME, organism-based; details: in vivo
RAW264.7 [38] = test: Downregulation of TNFalpha mRNA expression in LPS induced mouse RAW264.7 cells at 5 to 20 uM preincubated for 12 hrs followed by LPS stimulation for 4 hrs by RT-qPCR analysis; type: functional, cell-based; details: dose 5-20 µM, time 16.0 hrs
[39] = AUC(0 to infinity) in ICR(CD-1) mouse at 5 mg/kg, iv measured upto 24 hrs by LC-MS/MS analysis; type: ADME, organism-based; details: in vivo
[40] = Cmax in ICR(CD-1) mouse at 10 mg/kg, po measured upto 24 hrs by LC-MS/MS analysis; type: ADME, organism-based; details: in vivo
Mus musculus [41] = organism: Mus musculus; test: Antiinflammatory activity against imiquimod-induced psoriasis in BALB/c mouse model assessed as improvement in clinical features of skin lesions pretreated with IMQ for 4 hrs followed by compound addition once daily from day 2 to 8; type: functional, organism-based; details: dose 0.3-1.2 %, time 7.0 day
RAW264.7 [42] = test: Downregulation of IL-1beta mRNA expression in LPS induced mouse RAW264.7 cells at 5 to 20 uM preincubated for 12 hrs followed by LPS stimulation for 4 hrs by RT-qPCR analysis; type: functional, cell-based; details: dose 5-20 µM, time 16.0 hrs

T1 sequence (Q08499 whole entry): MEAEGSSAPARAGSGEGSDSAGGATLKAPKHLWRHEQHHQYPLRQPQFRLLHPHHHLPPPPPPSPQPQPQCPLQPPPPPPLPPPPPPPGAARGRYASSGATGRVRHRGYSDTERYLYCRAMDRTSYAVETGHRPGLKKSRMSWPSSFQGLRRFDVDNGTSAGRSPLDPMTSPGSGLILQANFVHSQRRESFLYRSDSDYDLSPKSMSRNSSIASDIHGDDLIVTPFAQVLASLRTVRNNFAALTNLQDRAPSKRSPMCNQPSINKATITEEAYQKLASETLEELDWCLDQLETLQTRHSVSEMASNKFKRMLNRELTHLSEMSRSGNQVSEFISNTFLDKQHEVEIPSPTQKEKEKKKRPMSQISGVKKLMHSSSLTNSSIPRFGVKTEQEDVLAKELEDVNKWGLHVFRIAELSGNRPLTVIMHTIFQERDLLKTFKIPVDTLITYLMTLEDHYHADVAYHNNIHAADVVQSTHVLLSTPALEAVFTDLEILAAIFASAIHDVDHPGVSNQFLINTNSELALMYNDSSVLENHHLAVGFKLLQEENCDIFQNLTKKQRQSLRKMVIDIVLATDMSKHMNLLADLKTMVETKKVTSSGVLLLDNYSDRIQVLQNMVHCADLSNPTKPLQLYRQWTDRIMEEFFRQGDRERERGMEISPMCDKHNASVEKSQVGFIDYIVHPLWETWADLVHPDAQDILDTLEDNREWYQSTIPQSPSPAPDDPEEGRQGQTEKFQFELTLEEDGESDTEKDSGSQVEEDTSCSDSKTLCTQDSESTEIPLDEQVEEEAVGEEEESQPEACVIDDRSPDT

## CCOc1cc([C@@H](CS(C)(=O)=O)N2C(=O)c3csc(NC(C)=O)c3C2=O)ccc1OC
[1]
  IC50: 0.114 µM

## N#Cc1ccc(Oc2ccc3c(c2)COB3O)cc1 [CRISABOROLE]
[2]
  IC50: 0.17 µM

## O=C(NCc1ncccn1)c1csc(-c2ccc(OC(F)F)c(OCC3CC3)c2)n1
[3]
  AUC(0-t) at 24 h: 41 ng·h/mL
RAW264.7 [4]
  IC50: 40.9 µM
[5]
  concentration at 2 h: 0.35 ng/mL
[6]
  half-life: 16.2 min
[7]
  concentration at 1 h: 0.34 ng/mL
[8]
  inhibition: 53.8%
[9]
  Tmax: 64.8 min
[10]
  inhibition: 56.6%
Mus musculus [11]
  Activity: Active
[12]
  half-life: 25.6 min
Mus musculus [13]
  Activity: Active
RAW264.7 [14]
  Activity: Active
[15]
  AUC(0-inf): 51 ng·h/mL
Mus musculus [16]
  Activity: Active
[17]
  clearance: 135 mL/min/kg
HaCaT
  IC50: 38.6 µM
Mus musculus [18]
  Activity: Active
[19]
  bioavailability: 3.31%
[20]
  half-life: 25.3 min
[21]
  C0 at 24 h: 5240 ng/mL
Mus musculus [22]
  Activity: Active
[23]
  CC50 at 24 h: > 50 µM
[24]
  Activity: Non-Toxic
[25]
  half-life: 133 min
RAW264.7 [26]
  Activity: Active
[27]
  half-life: 296 min
[28]
  half-life: 62.1 min
[29]
  IC50: 0.00711 µM
RAW264.7 [30]
  IC50: 34.2 µM
[31]
  Vd: 3.12 L/kg
RAW264.7 [32]
  Activity: Active
RAW264.7 [33]
  Activity: Active
[34]
  half-life: 28.6 min
[35]
  CC50 at 24 h: > 50 µM
[36]
  inhibition: 51.4%
[37]
  AUC(0-t) at 24 h: 619 ng·h/mL
RAW264.7 [38]
  Activity: Active
[39]
  AUC(0-inf): 620 ng·h/mL
[40]
  Cmax: 31 ng/mL
Mus musculus [41]
  Activity: Dose-Dependent Effect
RAW264.7 [42]
  Activity: Active
